Measured values reported in paper PMC6799938, “Determinants of drug entry into the developing brain” (F1000Research, 2019).
Like-named read-outs stand apart in the source and are kept apart here.

Columns and labels:
[1] = for Brain radioactivity level / CSF radioactivity level / Plasma radioactivity level: mean; for Brain/Plasma Ratio / CSF/Plasma Ratio: mean ± SD
Description: Animals. Sprague Dawley rats were supplied by the University of Melbourne Biological Research Facility and housed in groups of 2–4 (adult) or full litters per cage (25cm x 35cm x 25cm on Breeders Choice paper bedding, made from 99% recycled paper; it is biodegradable with no added chemicals), on a 12 h light/dark cycle with ad libitum access to food (dry pellets of a fixed formulation diet for laboratory rats and mice fortified with vitamins and minerals to meet the requirements of breeding animals after the diet is autoclaved or irradiated, supplied by Speciality Feeds, Western Australia) and water. Age groups investigated (at treatment completion) were time mated pregnant females at E19 (350-400g body weight), postnatal pups at P4 and non-pregnant female adults (175-230g body weight). E19 was chosen because this is a stage of development when adequate volumes of blood and CSF can be obtained for analysis from fetal rats without pooling ( [Dziegielewska et al., 1981]) and individual pups can be injected intraperitoneally while still inside the uterine horn and kept viable for periods of time. P4 was chosen because its stage of brain development is similar to that of very prematurely born but viable human infants of 22–24 weeks gestation ( [Clancy et al., 2001]). Animal numbers were based on previous experience of such experiments and were the minimum number required to detect a significant difference between groups at P <0.05.
Drug doses. Drug doses were selected based on use in clinical practice ( [Australian Medicines Handbook, 2019]) and adjusted for body weight.
(§1) Experimental procedure. In acute drug experiments, a single dose was injected that included traces of [ ^3H]-labelled drug (20µCi adults, 2µCi newborns). In chronic experiments, doses of unlabelled drug were given twice daily (09.00 and 17.00h) for four days before a final injection on the 5 ^th day identical to acute experiments. In passive marker experiments, all dosing was acute and contained only the [ ^3H]- or [ ^14C]-labelled compound (20µCi adults, 2µCi newborns).
(§2) In all experiments involving postnatal animals, injections were intraperitoneal (i.p.). In pregnant animals for fetal drug entry studies, the final injection of the radiolabelled marker was given intravenously (i.v.), as the peritoneal cavity required opening prior to the sampling period to gain access to the fetuses. For passive markers (L-glucose, sucrose and glycerol), fetal animals were individually injected i.p. while still within the uterine horn. All experiments took place between 09.00 and 15.00h. All pregnancy studies were completed with a single treatment group on one day. Postnatal groups were conducted with a single treatment group on one day or with the chronic group completed prior to the acute group.
(§3) Sample collection. Samples were collected 30 minutes after the final injection. This duration was chosen partly to limit any potential metabolism of the drugs and markers used but also to allow enough time for i.p. injected markers to reach the blood stream and, from there, to access the brain parenchyma across brain barriers, as well as to limit the CSF sink effect that could influence drug levels ( [Bito et al., 1966]). Thirty minutes is also within the half-life of these drugs ( [Adedoyin et al., 1987]; [Harrison & Gibaldi, 1976]; Lin & Levy, 1963). The other reason a 30-minute duration was chosen is that in the case of exposed fetal rat pups, it is difficult to maintain them in a reasonable physiological state for long periods due to deterioration of placental perfusion. Therefore, for comparative purposes, all studies were conducted at the same time.
For adult and newborn (P4) experiments, animals were terminally anaesthetized using inhaled isofluorane (IsoFlo 100% w/w, Abbott Laboratories).

[2] = Sprague Dawley, rat, in vivo
[3] = Entry of "passive" markers into brain and CSF; details: passive marker, all ages (E19, P4, adults), 30 minutes
Description: as §1, §2, §3
For adult and newborn (P4) experiments, animals were terminally anaesthetized using inhaled isofluorane (IsoFlo 100% w/w, Abbott Laboratories). Blood samples were collected from the right cardiac ventricle, CSF from the cisterna magna (Habgood et al., 1992) and cortical segments of brain tissue dorsal to the ventricle of the frontal/parietal lobes, as previously described ( [Koehn et al., 2019]). Blood and CSF sampling from the P4 animals was terminal and would thus not have affected the physiological state of the animals during the experiment.
Sample preparation. Samples were processed immediately after collection. Blood was centrifuged at 7000rpm for five minutes and the plasma separated. CSF samples were examined microscopically for traces of red blood cells and discarded if contaminated (Habgood et al., 1992). In all experiments, the radioactivity in the injectate was also measured to confirm the uniformity of the injected material. All samples were weighed and transferred into scintillation vials. Soluene350 (0.5ml, PerkinElmer) was added to the brain samples. After being incubated at 36°C overnight to allow the tissue to solubilize, two drops of glacial acetic acid (Sigma) were added to neutralize the strongly alkaline Soluene350. All samples were then mixed with 5ml of scintillation fluid (Emulsifier-safe, PerkinElmer) before being transferred into the liquid scintillation counter (Tri-Carb 4910 TR, PerkinElmer) to count radioactivity disintegrations per minute (DPM) over five minutes each with luminescence correction on. Blank vials containing the same tissues without radioactivity were also counted alongside the samples to establish the level of background counts, which were always subtracted from the radioactivity counts of the corresponding experimental samples.
BrainorCSFtransfer=BrainorCSFDPM/μl/plasmaDPM/μl×100%

[4] = Placental transfer at E19 (fetal/maternal plasma concentration ratio); details: E19, passive permeability markers, acute; for Fetal/Maternal plasma concentration ratio: mean ± SD
[5] = choroid plexus (lateral ventricular), E19
[6] = choroid plexus (lateral ventricular), P4
[7] = choroid plexus (lateral ventricular), adult
[8] = E19 fetuses, acute, 30 min - […] after administration
[9] = E19 fetuses, acute, listed as cimetidine
[10] = E19 fetuses, chronic (twice daily over five days), 30 min - […] after final dose
[11] = P4, acute, 30 min, listed as cimetidine
[12] = P4, chronic i.p. (twice daily over five days), 30 min after final dose
[13] = adult, acute, 30 min, listed as cimetidine
[14] = adult, chronic i.p. (twice daily over five days), 30 min after final dose

CN/C(=N/CCSCc1nc[nH]c1C)NC#N [Cimetidine]
abcb1b expression, fold change chronic vs acute (abcb1b (PGP); brain cortex, E19): 1.09 fold | abcb1b expression, fold change chronic vs acute (abcb1b (PGP); brain cortex, P4): 1.03 fold | abcb1b expression, fold change chronic vs acute (abcb1b (PGP); brain cortex, adult): 0.87 fold | abcb1b expression, fold change chronic vs acute (abcb1b (PGP); [5]): 1.66 fold | abcb1b expression, fold change chronic vs acute (abcb1b (PGP); [6]): 1.00 fold | abcb1b expression, fold change chronic vs acute (abcb1b (PGP); [7]): 1.15 fold | abcb1b expression, fold change chronic vs acute (abcb1b (PGP); placenta, E19): 1.00 fold | abcb1a expression, fold change chronic vs acute (abcb1a (PGP); brain cortex, E19): 0.93 fold | abcb1a expression, fold change chronic vs acute (abcb1a (PGP); brain cortex, P4): ↑ 1.23 fold | abcb1a expression, fold change chronic vs acute (abcb1a (PGP); brain cortex, adult): 1.06 fold | abcb1a expression, fold change chronic vs acute (abcb1a (PGP); [5]): 1.73 fold | abcb1a expression, fold change chronic vs acute (abcb1a (PGP); [6]): 1.72 fold | abcb1a expression, fold change chronic vs acute (abcb1a (PGP); [7]): 1.06 fold | abcb1a expression, fold change chronic vs acute (abcb1a (PGP); placenta, E19): 0.86 fold | abcg2 expression, fold change chronic vs acute (abcg2 (BCRP); brain cortex, E19): 0.80 fold | abcg2 expression, fold change chronic vs acute (abcg2 (BCRP); brain cortex, P4): 1.11 fold | abcg2 expression, fold change chronic vs acute (abcg2 (BCRP); brain cortex, adult): 0.98 fold | abcg2 expression, fold change chronic vs acute (abcg2 (BCRP); [5]): 1.01 fold | abcg2 expression, fold change chronic vs acute (abcg2 (BCRP); [6]): 0.73 fold | abcg2 expression, fold change chronic vs acute (abcg2 (BCRP); [7]): 0.91 fold | abcg2 expression, fold change chronic vs acute (abcg2 (BCRP); placenta, E19): 1.24 fold | transfer from maternal blood to fetal brain ([1]; E19, acute): 17% | Brain radioactivity level [1, 8]: 7.3 DPM/µg | CSF radioactivity level [1, 8]: 7.0 DPM/µl | Plasma radioactivity level [1, 8]: 13.0 DPM/µl | Brain/Plasma Ratio ([1]; E19 fetuses, acute): 56 ± 10% | CSF/Plasma Ratio ([1]; E19 fetuses, acute): 54 ± 11% | Brain/Plasma Ratio [1, 9]: 56% | CSF/Plasma Ratio [1, 9]: 54% | Brain radioactivity level [1, 10]: 8.8 DPM/µg | CSF radioactivity level [1, 10]: 8.4 DPM/µl | Plasma radioactivity level [1, 10]: 13.3 DPM/µl | Brain/Plasma Ratio ([1]; E19 fetuses, chronic): 65 ± 19% | CSF/Plasma Ratio ([1]; E19 fetuses, chronic): 63 ± 15% | Brain radioactivity level ([1]; P4, acute i.p., 30 min): 37.2 DPM/µg | CSF radioactivity level ([1]; P4, acute i.p., 30 min): 24.3 DPM/µl | Plasma radioactivity level ([1]; P4, acute i.p., 30 min): 310.9 DPM/µl | Brain/Plasma Ratio ([1]; P4, acute, 30 min): 12 ± 1% | CSF/Plasma Ratio ([1]; P4, acute, 30 min): 8 ± 1% | Brain/Plasma Ratio [1, 11]: 12% | CSF/Plasma Ratio [1, 11]: 8% | Brain radioactivity level [1, 12]: 45.7 DPM/µg | CSF radioactivity level [1, 12]: 27.8 DPM/µl | Plasma radioactivity level [1, 12]: 373.2 DPM/µl | Brain/Plasma Ratio ([1]; P4, chronic, 30 min): 12 ± 2% | CSF/Plasma Ratio ([1]; P4, chronic, 30 min): 7 ± 1% | transfer into maternal brain (brain/maternal blood) ([1]; acute): 13% | Brain radioactivity level ([1]; adult, acute i.p., 30 min): 6.2 DPM/µg | CSF radioactivity level ([1]; adult, acute i.p., 30 min): 6.0 DPM/µl | Plasma radioactivity level ([1]; adult, acute i.p., 30 min): 55.9 DPM/µl | Brain/Plasma Ratio ([1]; adult, acute, 30 min): 13 ± 5% | CSF/Plasma Ratio ([1]; adult, acute, 30 min): 12 ± 3% | Brain/Plasma Ratio [1, 13]: 13% | CSF/Plasma Ratio [1, 13]: 12% | Brain radioactivity level [1, 14]: 11.6 DPM/µg | CSF radioactivity level [1, 14]: 11.1 DPM/µl | Plasma radioactivity level [1, 14]: 90.7 DPM/µl | Brain/Plasma Ratio ([1]; adult, chronic, 30 min): 13 ± 1% | CSF/Plasma Ratio ([1]; adult, chronic, 30 min): 12 ± 1% | abcc5 expression, fold change chronic vs acute (abcc5 (MRP5); brain cortex, E19): 0.97 fold | abcc5 expression, fold change chronic vs acute (abcc5 (MRP5); brain cortex, P4): ↑ 1.24 fold | abcc5 expression, fold change chronic vs acute (abcc5 (MRP5); brain cortex, P4, listed as cimetidine): 1.24 fold | abcc5 expression, fold change chronic vs acute (abcc5 (MRP5); brain cortex, adult): 1.11 fold | abcc5 expression, fold change chronic vs acute (abcc5 (MRP5); [5]): 1.19 fold | abcc5 expression, fold change chronic vs acute (abcc5 (MRP5); [6]): 0.86 fold | abcc5 expression, fold change chronic vs acute (abcc5 (MRP5); [7]): 1.21 fold | abcc5 expression, fold change chronic vs acute (abcc5 (MRP5); placenta, E19): 1.14 fold | abcc3 expression, fold change chronic vs acute (abcc3 (MRP3); brain cortex, E19): 0.81 fold | abcc3 expression, fold change chronic vs acute (abcc3 (MRP3); brain cortex, P4): 1.12 fold | abcc3 expression, fold change chronic vs acute (abcc3 (MRP3); brain cortex, adult): 1.18 fold | abcc3 expression, fold change chronic vs acute (abcc3 (MRP3); [5]): 1.46 fold | abcc3 expression, fold change chronic vs acute (abcc3 (MRP3); [6]): 1.05 fold | abcc3 expression, fold change chronic vs acute (abcc3 (MRP3); [7]): 1.12 fold | abcc3 expression, fold change chronic vs acute (abcc3 (MRP3); placenta, E19): 0.96 fold | abcc1 expression, fold change chronic vs acute (abcc1 (MRP1); brain cortex, E19): 1.00 fold | abcc1 expression, fold change chronic vs acute (abcc1 (MRP1); brain cortex, P4): 1.11 fold | abcc1 expression, fold change chronic vs acute (abcc1 (MRP1); brain cortex, adult): 1.20 fold | abcc1 expression, fold change chronic vs acute (abcc1 (MRP1); [5]): 1.28 fold | abcc1 expression, fold change chronic vs acute (abcc1 (MRP1); [6]): 0.96 fold | abcc1 expression, fold change chronic vs acute (abcc1 (MRP1); [7]): 1.06 fold | abcc2 expression, fold change chronic vs acute (abcc2 (MRP2); brain cortex, E19): 0.96 fold | abcc2 expression, fold change chronic vs acute (abcc2 (MRP2); brain cortex, P4): ↓ 0.92 fold | abcc2 expression, fold change chronic vs acute (abcc2 (MRP2); brain cortex, adult): 1.00 fold | abcc2 expression, fold change chronic vs acute (abcc2 (MRP2); [5]): 1.19 fold | abcc2 expression, fold change chronic vs acute (abcc2 (MRP2); [6]): 1.04 fold | abcc2 expression, fold change chronic vs acute (abcc2 (MRP2); [7]): 0.86 fold | abcc2 expression, fold change chronic vs acute (abcc2 (MRP2); placenta, E19): *10.07 fold | restriction of transfer by the placenta [2]: ~70% | abcc4 expression, fold change chronic vs acute (abcc4 (MRP4); brain cortex, E19): 0.98 fold | abcc4 expression, fold change chronic vs acute (abcc4 (MRP4); brain cortex, P4): 1.18 fold | abcc4 expression, fold change chronic vs acute (abcc4 (MRP4); brain cortex, adult): 1.00 fold | abcc4 expression, fold change chronic vs acute (abcc4 (MRP4); [5]): 1.17 fold | abcc4 expression, fold change chronic vs acute (abcc4 (MRP4); [6]): 1.12 fold | abcc4 expression, fold change chronic vs acute (abcc4 (MRP4); [7]): ↑ 1.49 fold | abcc4 expression, fold change chronic vs acute (abcc4 (MRP4); placenta, E19): 0.69 fold

O=C[C@@H](O)[C@H](O)[C@@H](O)[C@@H](O)CO [L-Glucose, L-glucose]
Brain/Plasma Ratio [3]: very low | CSF/Plasma Ratio [3]: very low | Fetal/Maternal plasma concentration ratio, range [4]: (8.3 - 27.7) % | Fetal/Maternal plasma concentration ratio [4]: 16.7 ± 6.5% | Fetal/Maternal plasma concentration ratio ([4]; listed as L-glucose): 16.7%
